The values that follow come from ChEMBL document CHEMBL1155358, “Unsaturated genistein disaccharide glycoside as a novel agent affecting microtubules” (2009).

The source made the active and inactive calls. The calls are words filed in the database; no cut-off is given here.

For assay [1], the system named is DU-145. Kind of assay: Cell cycle arrest in human DU145 cells assessed as accumulation at G1 phase at 5 uM after 24 hrs by flow cytometry using propidium iodide staining. The assay is classed as functional.
Assay [2] deals with DU-145. Kind of assay: Induction of apoptosis in human DU145 cells at interphase assessed as complete disappearance of microtubules at 25 uM after 24 hrs by beta tubulin immunofluorescent staining. Format: functional, cell-based.
Assay [3] concerns DU-145. The assay is described as follows: Cell cycle arrest in human DU145 cells assessed as accumulation at G2M phase relative to control. Format: functional.
Assay [4] deals with DU-145. The assay is described as follows: Cell cycle arrest in human DU145 cells assessed as accumulation between G1 phase and G2M phase at 10 uM after 24 hrs by flow cytometry using propidium iodide staining. Format: functional. A general note: A flow cytometer gives signals particle by particle.
For assay [5], the system named is DU-145. The assay is described as follows: Induction of apoptosis in human DU145 cells at interphase assessed as loosened of microtubule network at 5 uM after 24 hrs by beta tubulin immunofluorescent staining. Format: functional, cell-based.
Assay [6] has as its system DU-145. Kind of assay: Cell cycle arrest in human DU145 cells assessed as accumulation at >G1 phase at 5 uM after 24 hrs by flow cytometry using propidium iodide staining. Format: functional.
In assay [7] the test system is DU-145. The assay is described as follows: Cell cycle arrest in human DU145 cells assessed as accumulation at >G1 phase at 10 uM after 24 hrs by flow cytometry using propidium iodide staining. The assay is classed as functional.
For assay [8], the system named is DU-145. Kind of assay: Cell cycle arrest in human DU145 cells assessed as accumulation at G2M phase at 5 uM after 24 hrs by flow cytometry using propidium iodide staining. The assay is classed as functional.
Assay [9] has as its system DU-145. The assay is described as follows: Cell cycle arrest in human DU145 cells assessed as accumulation at G2M phase at 10 uM after 24 hrs by flow cytometry using propidium iodide staining. Format: functional.
For assay [10], the system named is DU-145. Kind of assay: Cell cycle arrest in human DU145 cells assessed as accumulation at G1 phase at 10 uM after 24 hrs by flow cytometry using propidium iodide staining. The assay is classed as functional.
For assay [11], the system named is DU-145. Kind of assay: Cell cycle arrest in human DU145 cells assessed as accumulation at < G2M phase at 5 uM after 24 hrs by flow cytometry using propidium iodide staining. The assay is classed as functional.
In assay [12] the test system is DU-145. The assay is described as follows: Cell cycle arrest in human DU145 cells assessed as accumulation between G1 phase and G2M phase at 5 uM after 24 hrs by flow cytometry using propidium iodide staining. Format: functional.
Assay [13] deals with DU-145. The assay is described as follows: Cell cycle arrest in human DU145 cells assessed as accumulation at < G2M phase at 10 uM after 24 hrs by flow cytometry using propidium iodide staining. Format: functional.
Assay [14] relates to DU-145. Kind of assay: Cell cycle arrest in human DU145 cells assessed as accumulation at >G1 phase at 50 uM after 24 hrs by flow cytometry using propidium iodide staining. The assay is classed as functional.
Assay [15] deals with DU-145. The assay is described as follows: Cell cycle arrest in human DU145 cells assessed as accumulation at G1 phase at 100 uM after 24 hrs by flow cytometry using propidium iodide staining. Format: functional.
The test system of assay [16] is DU-145. The assay is described as follows: Cell cycle arrest in human DU145 cells assessed as accumulation between G1 phase and G2M phase at 100 uM after 24 hrs by flow cytometry using propidium iodide staining. Format: functional.
The subject of assay [17] is DU-145. Kind of assay: Cell cycle arrest in human DU145 cells assessed as accumulation at G2M phase at 50 uM after 24 hrs by flow cytometry using propidium iodide staining. The assay is classed as functional.
Assay [18] deals with DU-145. Kind of assay: Induction of apoptosis in human DU145 cells at interphase assessed as alteration in microtubule array at 100 uM after 24 hrs by beta tubulin immunofluorescent staining. Format: functional, cell-based.
Assay [19] concerns DU-145. Kind of assay: Cell cycle arrest in human DU145 cells assessed as accumulation at G2M phase at 100 uM after 24 hrs by flow cytometry using propidium iodide staining. Format: functional.
Assay [20] relates to DU-145. Kind of assay: Cell cycle arrest in human DU145 cells assessed as accumulation at < G2M phase at 50 uM after 24 hrs by flow cytometry using propidium iodide staining. The assay is classed as functional.
In assay [21] the test system is DU-145. Kind of assay: Cell cycle arrest in human DU145 cells assessed as accumulation at G1 phase at 50 uM after 24 hrs by flow cytometry using propidium iodide staining. Format: functional.
Assay [22] deals with DU-145. The assay is described as follows: Cell cycle arrest in human DU145 cells assessed as accumulation between G1 phase and G2M phase at 50 uM after 24 hrs by flow cytometry using propidium iodide staining. The assay is classed as functional.
In assay [23] the test system is DU-145. Kind of assay: Cell cycle arrest in human DU145 cells assessed as accumulation at < G2M phase at 100 uM after 24 hrs by flow cytometry using propidium iodide staining. The assay is classed as functional.
Assay [24] has as its system DU-145. Kind of assay: Cell cycle arrest in human DU145 cells assessed as accumulation at >G1 phase at 100 uM after 24 hrs by flow cytometry using propidium iodide staining. The assay is classed as functional.
In assay [25] the test system is DU-145. The assay is described as follows: Induction of apoptosis in human DU145 cells at interphase assessed as curly appearance of microtubules at 1 nM after 24 hrs by beta tubulin immunofluorescent staining. The assay is classed as functional, cell-based.
Assay [26] deals with DU-145. Kind of assay: Induction of apoptosis in human DU145 cells at interphase assessed as dencer microtubue network at 2 nM after 24 hrs by beta tubulin immunofluorescent staining. The assay is classed as functional, cell-based.

Turning to `CC(=O)OC[C@H]1O[C@@H](O[C@H]2C=C[C@@H](Oc3cc(O)c4c(=O)c(-c5ccc(O)cc5)coc4c3)O[C@@H]2COC(C)=O)[C@H](OC(C)=O)[C@@H](OC(C)=O)[C@H]1OC(C)=O`, the Activity is 26.5% in the assay on DU-145 [1]; 30% in the assay with DU-145 [3]; 11.4% in the assay with DU-145 [4]; 7.5% with DU-145 [6]; 5.7% in the assay with DU-145 [7]; 54.5% in the assay on DU-145 [8]. For the same compound, the Activity turned out to be 57.8% in the assay on DU-145 [9]; 23.4% with DU-145 [10]; 1.4% in the assay with DU-145 [11]; 10.1% in the assay on DU-145 [12]; 1.7% in the assay on DU-145 [13]. Besides, the outcome in the assay with DU-145 [2] and in the assay on DU-145 [5] was Active.

As to `O=c1c(-c2ccc(O)cc2)coc2cc(O)cc(O)c12` [GENISTEIN], the Activity in the assay with DU-145 [14] worked out at 5.1%; in the assay on DU-145 [15], 44.3%; in the assay with DU-145 [16], 20.8%; in the assay with DU-145 [17], 17.1%; in the assay on DU-145 [19], 27.2%; in the assay on DU-145 [20] it was 2.8%. Also, the Activity in the assay with DU-145 [21] stood at 55.9%; in the assay with DU-145 [22], 19.2%; with DU-145 [23], 1.6%; in the assay with DU-145 [24] it was 6.1%. In addition, in the assay on DU-145 [18], the outcome was inactive.

Take `CC[C@]1(O)C[C@@H]2CN(CCc3c([nH]c4ccccc34)[C@@](C(=O)OC)(c3cc4c(cc3OC)N(C)[C@H]3[C@@](O)(C(=O)OC)[C@H](OC(C)=O)[C@]5(CC)C=CCN6CC[C@]43[C@@H]65)C2)C1`: the result with DU-145 [25] was Active.

For `CC(=O)O[C@H]1C(=O)[C@@]2(C)[C@H]([C@H](OC(=O)c3ccccc3)[C@]3(O)C[C@H](OC(=O)[C@H](O)[C@@H](NC(=O)c4ccccc4)c4ccccc4)C(C)=C1C3(C)C)[C@]1(OC(C)=O)CO[C@@H]1C[C@@H]2O`, the result with DU-145 [26] was Active.
